Measurements taken from the supplement of paper PMC10307832.

Columns and labels:
Test in all cases: relative viability (nuclei count vs DMSO), 5 days (fraction); higher = more cells survive
[1] = compound: C=CCNC1=C2C[C@@H](C)C[C@H](OC)[C@H](O)[C@@H](C)/C=C(\C)[C@H](OC(N)=O)[C@@H](OC)/C=C\C=C(/C)C(=O)NC(=CC1=O)C2=O [17-AAG] + N=C(N)NC(=N)NCCc1ccccc1 [Phenformin] (partner 250 µM)
Procedure, shortened: (§1)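 Cells from lung cancer lines were seeded into 1536-well plates and, one day later, dosed by pin tool. Treatments were either a single drug or a fixed dose of an anchor drug with five library-drug doses (not always all listed) in √10 steps. After 5 days, nuclei were stained in a one-step fixation (final 0.05% Triton X-100, 1% formaldehyde, 1 ug/ml Hoechst) and counted on 4× images, and relative viability is the treated-to-vehicle nuclei ratio, as the median of duplicate plates.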

[2] = compound: C=CCNC1=C2C[C@@H](C)C[C@H](OC)[C@H](O)[C@@H](C)/C=C(\C)[C@H](OC(N)=O)[C@@H](OC)/C=C\C=C(/C)C(=O)NC(=CC1=O)C2=O [17-AAG] + COc1cccc2cc(-c3nc([C@H]4CC[C@H](C(=O)O)CC4)n4ncnc(N)c34)[nH]c12 [OSI-027] (partner 0.5 µM)
Procedure, shortened: as §1

[3] = compound: C=CCNC1=C2C[C@@H](C)C[C@H](OC)[C@H](O)[C@@H](C)/C=C(\C)[C@H](OC(N)=O)[C@@H](OC)/C=C\C=C(/C)C(=O)NC(=CC1=O)C2=O [17-AAG] + C[C@@H](Oc1cc(-c2cnn(C3CCNCC3)c2)cnc1N)c1c(Cl)ccc(F)c1Cl [Crizotinib] (partner 1 µM)
Procedure, shortened: as §1

[4] = compound: C=CCNC1=C2C[C@@H](C)C[C@H](OC)[C@H](O)[C@@H](C)/C=C(\C)[C@H](OC(N)=O)[C@@H](OC)/C=C\C=C(/C)C(=O)NC(=CC1=O)C2=O [17-AAG] + CC(=O)Nc1cccc(-n2c(=O)n(C3CC3)c(=O)c3c(Nc4ccc(I)cc4F)n(C)c(=O)c(C)c32)c1 [Trametinib] (partner 0.02 µM)
Procedure, shortened: as §1

Cell Line | relative viability ([1]; first compound 0.00128 µM) | relative viability ([1]; first compound 0.004048 µM) | relative viability ([1]; first compound 0.0128 µM) | relative viability ([1]; first compound 0.04048 µM) | relative viability ([1]; first compound 0.128 µM) | relative viability ([2]; first compound 0.00128 µM) | relative viability ([2]; first compound 0.004048 µM) | relative viability ([2]; first compound 0.0128 µM) | relative viability ([2]; first compound 0.04048 µM) | relative viability ([2]; first compound 0.128 µM) | relative viability ([3]; first compound 0.00128 µM) | relative viability ([3]; first compound 0.004048 µM) | relative viability ([3]; first compound 0.0128 µM) | relative viability ([3]; first compound 0.04048 µM) | relative viability ([3]; first compound 0.128 µM) | relative viability ([4]; first compound 0.00128 µM) | relative viability ([4]; first compound 0.004048 µM) | relative viability ([4]; first compound 0.0128 µM) | relative viability ([4]; first compound 0.04048 µM) | relative viability ([4]; first compound 0.128 µM)
201T | 0.484 | 0.391 | 0.341 | 0.244 | 0.248 | 0.823 | 1.01 | 0.443 | 0.165 | 0.165 | 1.04 | 1.07 | 1.02 | 0.886 | 0.805 | 0.778 | 0.729 | 0.688 | 0.702 | 0.682
A-427 | 0.353 | 0.347 | 0.374 | 0.271 | 0.167 | 0.484 | 0.502 | 0.502 | 0.343 | 0.181 | 1.03 | 0.872 | 0.899 | 0.881 | 0.798 | 0.799 | 0.759 | 0.946 | 0.419 | 0.282
ABC-1 | 0.212 | 0.261 | 0.255 | 0.246 | 0.261 | 0.393 | 0.493 | 0.56 | 0.508 | 0.458 | 1.19 | 1.08 | 1.04 | 1.3 | 0.898 |  |  |  |  | 
BEN | 0.268 | 0.26 | 0.222 | 0.197 | 0.167 | 0.337 | 0.307 | 0.256 | 0.232 | 0.2 | 0.896 | 0.821 | 0.929 | 0.739 | 0.237 | 1.07 | 1.16 | 1.31 | 1.07 | 0.613
CAL-12T | 0.56 | 0.498 | 0.563 | 0.447 | 0.15 | 0.564 | 0.807 | 0.713 | 0.411 | 0.128 | 0.676 | 0.775 | 0.646 | 0.778 | 0.255 | 0.394 | 0.352 | 0.319 | 0.308 | 0.146
COR-L23 | 0.459 | 0.438 | 0.419 | 0.269 | 0.103 | 0.853 | 0.786 | 0.817 | 0.661 | 0.0974 | 0.725 | 0.614 | 0.749 | 0.339 | 0.0896 | 0.664 | 0.504 | 0.438 | 0.158 | 0.0809
COR-L 105 | 0.55 | 0.453 | 0.463 | 0.354 | 0.299 | 0.719 | 0.829 | 0.704 | 0.351 | 0.306 | 0.961 | 0.9 | 0.793 | 0.568 | 0.661 | 0.473 | 0.406 | 0.501 | 0.375 | 0.335
Calu-6 |  |  |  |  |  |  |  |  |  |  | 0.842 | 0.77 | 0.775 | 0.202 | 0.109 |  |  |  |  | 
ChaGo-K-1 | 0.444 | 0.587 | 0.422 | 0.273 | 0.163 | 0.514 | 0.71 | 0.51 | 0.24 | 0.16 | 1.11 | 1.07 | 1.03 | 0.628 | 0.293 | 0.918 | 0.873 | 0.767 | 0.857 | 0.735
EKVX | 0.26 | 0.222 | 0.139 | 0.195 | 0.0638 | 0.77 | 0.649 | 0.746 | 0.177 | 0.152 | 1.07 | 0.902 | 0.951 | 0.529 | 0.114 | 0.341 | 0.306 | 0.289 | 0.127 | 0.117
EMC-BAC-2 | 0.576 | 0.535 | 0.427 | 0.261 | 0.189 | 0.464 | 0.486 | 0.438 | 0.3 | 0.216 | 0.712 | 0.753 | 0.756 | 0.902 | 0.281 | 0.946 | 0.821 | 0.765 | 0.335 | 0.235
EPLC-272H | 0.32 | 0.327 | 0.202 | 0.095 | 0.0918 | 0.275 | 0.277 | 0.247 | 0.145 | 0.112 | 0.956 | 0.872 | 1.01 | 0.672 | 0.338 | 0.278 | 0.268 | 0.229 | 0.169 | 0.135
H3255 | 0.365 | 0.368 | 0.331 | 0.234 | 0.189 | 0.569 | 0.576 | 0.49 | 0.274 | 0.268 | 0.926 | 0.833 | 0.646 | 0.196 | 0.161 | 0.597 | 0.556 | 0.544 | 0.31 | 0.21
HARA | 0.443 | 0.456 | 0.367 | 0.418 | 0.113 | 0.503 | 0.56 | 0.489 | 0.151 | 0.0613 | 1.05 | 1.05 | 1.06 | 1.12 | 0.725 | 0.893 | 0.598 | 0.81 | 0.66 | 0.149
HCC-15 | 0.433 | 0.33 | 0.146 | 0.124 | 0.107 | 0.628 | 0.54 | 0.179 | 0.107 | 0.106 | 0.767 | 0.758 | 0.456 | 0.4 | 0.132 | 0.415 | 0.416 | 0.286 | 0.214 | 0.13
HCC-44 | 0.22 | 0.285 | 0.158 | 0.0925 | 0.0873 | 0.54 | 0.429 | 0.229 | 0.141 | 0.116 | 0.823 | 0.746 | 0.766 | 0.204 | 0.122 | 1.04 | 1.01 | 0.988 | 1.05 | 0.804
